Source: PubChem BioAssay (NCI)
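How tested: cells in 96-well plates exposed to compound for 48 hours at five concentrations. Here, GI50 denotes the concentration required for 50% inhibition of growth. Definition used: TGI = concentration required for complete inhibition of growth.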

Key:
Assay in all cases: DTP human tumour cell line panel, 48 h
EKVX NSCLC = test system: EKVX NSCLC
LOX IMVI melanoma = test system: LOX IMVI melanoma
K-562 leukemia = test system: K-562 leukemia
SK-MEL-28 melanoma = test system: SK-MEL-28 melanoma
KM12 colon = test system: KM12 colon
NCI-H23 lung = test system: NCI-H23 lung
CCRF-CEM leukemia = test system: CCRF-CEM leukemia
UO-31 renal = test system: UO-31 renal
SK-MEL-2 melanoma = test system: SK-MEL-2 melanoma
NCI-H226 lung = test system: NCI-H226 lung

Compound	TGI (EKVX NSCLC) [µM]	TGI (LOX IMVI melanoma) [µM]	TGI (K-562 leukemia) [µM]	TGI (SK-MEL-28 melanoma) [µM]	TGI (KM12 colon) [µM]	TGI (NCI-H23 lung) [µM]	TGI (CCRF-CEM leukemia) [µM]	TGI (UO-31 renal) [µM]	TGI (SK-MEL-2 melanoma) [µM]	TGI (NCI-H226 lung) [µM]	GI50 (EKVX NSCLC) [µM]	GI50 (K-562 leukemia) [µM]	GI50 (SK-MEL-28 melanoma) [µM]	GI50 (KM12 colon) [µM]	GI50 (NCI-H23 lung) [µM]	GI50 (CCRF-CEM leukemia) [µM]	GI50 (UO-31 renal) [µM]	GI50 (SK-MEL-2 melanoma) [µM]	GI50 (NCI-H226 lung) [µM]	GI50 (LOX IMVI melanoma) [µM]
O=C1CN2C(Cl)(Cl)C2(c2ccccc2)c2cc(Cl)ccc2N1CC(F)(F)F (stereo not drawn)	> 100	39	72.1	61	42.2	70.1	42.3	> 100	54.9	67	–	–	–	–	–	–	–	–	–	–
CC1=C[C@]2(CC(C)C3C(CC4(C)C5CCC6C(C)(C)C(=O)CC[C@@]67C[C@@]57CC[C@]34C)O2)OC1=O (stereo partly drawn)	> 100	46.6	> 100	> 100	> 100	> 100	> 100	–	> 100	22	–	–	–	–	–	–	–	–	–	–
CCOc1ccc(/C=C/[N+](=O)[O-])cc1	81.7	–	> 100	30.9	15.4	> 100	52.3	28.8	33	11.7	25.7	4.52	16.6	4.51	18.5	3.23	13.8	17.1	3.06	–
O=C(Nc1ccc(Cl)cc1)/C(Cc1cccc[n+]1[O-])=N\Nc1ccc([N+](=O)[O-])cc1[N+](=O)[O-]	> 100	> 100	> 100	> 100	> 100	> 100	> 100	> 100	> 100	–	–	–	–	–	–	–	–	–	–	–
COc1c2c(cc3c(CCc4ccccc4)cc(=O)oc13)CCC(C)(C)O2	> 100	> 100	> 100	> 100	> 100	> 100	> 100	> 100	> 100	> 100	–	–	–	–	–	–	–	–	–	–
CN1C2C=C(c3ccccc3)CC1CC2 (stereo not drawn)	> 100	> 100	> 100	> 100	> 100	> 100	> 100	> 100	> 100	–	–	–	–	–	–	–	–	–	–	–
CCOc1ccc2c(ccc(/C=C\c3cc(C)c4cccnc4c3O)[n+]2C)c1	15.2	66.4	26.8	14.6	22.7	43.5	–	35.1	3.24	3.77	–	–	–	–	–	–	–	–	–	–
Nc1ncnc2c1ncn2C1CCC(CO)O1 (stereo not drawn)	100	> 100	> 100	> 68.2	> 100	> 71.5	> 100	> 100	> 100	> 74.7	–	–	–	–	–	–	–	–	–	–
CO/N=C1/c2sccc2[C@H](NC(=O)C(F)(F)F)[C@@H]1O	> 100	> 100	> 100	> 100	–	> 100	> 100	> 100	> 100	> 100	–	–	–	–	–	–	–	–	–	–
O=C1Nc2ccccc2Nc2nc3cccccc-3c21	> 100	> 100	> 100	> 100	> 100	> 100	> 100	> 100	> 100	> 100	–	–	–	–	–	–	–	–	–	–
COc1ccc(/C=N/NC(=O)NCCCN(C)C)cc1	–	> 100	> 100	> 100	> 100	> 100	> 100	> 100	> 100	> 100	–	–	–	–	–	–	–	–	–	–
O=C(Nc1nc2ccc([N+](=O)[O-])cc2[n+]([O-])n1)C(F)(F)F	–	–	79.3	> 100	> 100	80.3	> 100	> 100	65.2	> 100	–	–	–	–	–	–	–	–	–	–
[C-]#[O+].[Cl][Sn]([Cl])[Cl].[Cl][Sn]([Cl])[Cl].[Pt].c1ccncc1	> 100	> 31.6	> 100	> 100	> 100	> 100	> 100	> 100	> 100	> 100	–	–	–	–	–	–	–	–	–	–
c1ccc2c(c1)nc1n2CSC1	> 100	> 100	> 100	> 100	–	> 100	> 100	> 100	> 100	> 100	–	–	–	–	–	–	–	–	–	–
CN1CCN(Cc2ccc(NC(=O)c3ccc(C#N)c(C#Cc4cnc(N)c5ncccc45)c3)cc2C(F)(F)F)CC1	89.7	–	–	–	–	–	–	2.99	> 100	–	19.3	–	–	–	–	–	1.6	2.45	–	–
CC(/C=C/c1ccc([N+](=O)[O-])o1)=N/N1CC(CN2CCOCC2)OC1=O (stereo not drawn)	> 100	> 100	61.1	38.2	> 100	49.8	47.3	45.4	34.6	52.1	–	–	–	–	–	–	–	–	–	–
CC(C)=CCc1c(C)cc2cc3c(c(O)c2c1O)C(O)=CC(=O)C3(CC=C(C)C)C/C=C(\C)CO (stereo not drawn)	70.7	77.4	90.9	86.8	81.7	84.8	60.1	64.4	29.8	77	–	–	–	–	–	–	–	–	–	–
COc1cc2c3c(n(CCN(C)C)c(=O)c2cc1OC)-c1cc2c(cc1C3=O)OCO2	> 100	> 21.5	97.4	> 100	> 60.2	> 100	1.61	> 100	> 100	57.9	37	2.53	> 28.4	15.2	0.137	0.294	9.3	> 96.1	1.08	–
Cc1nc2ccccc2c(=O)n1CC(=O)O	> 100	> 100	> 100	> 100	> 100	> 100	> 100	> 100	> 100	> 100	–	–	–	–	–	–	–	–	–	–
O=C(O)c1cc(=O)[nH]c(=S)[nH]1	> 100	> 100	> 100	> 100	> 100	> 100	> 100	> 100	> 100	> 100	–	–	–	–	–	–	–	–	–	–
CC1(C)CCc2cc3c(-c4ccccc4)cc(=O)oc3cc2O1	> 100	> 100	> 100	> 100	–	> 100	> 100	> 100	> 100	> 100	–	–	–	–	–	–	–	–	–	–
CCCCN(CCCC)CCCCNc1c(C)cnc2cc(Cl)ccc12	46.3	29.7	43.3	33.2	> 100	> 100	> 100	25.1	39.9	43.4	–	–	–	–	–	–	–	–	–	–
CCOP(=O)(OCC)C(Cc1ccc(OC)c(OC)c1)N=C(c1ccccc1)c1ccccc1 (stereo not drawn)	–	–	22.4	> 100	> 100	> 100	96.9	> 100	–	> 100	–	–	–	–	–	–	–	–	–	–
Cc1ccc(S(=O)(=O)Oc2cc(S(=O)(=O)O)cc3cc(S(=O)(=O)O)cc(N)c23)cc1	> 100	> 100	> 100	> 100	> 100	> 100	> 100	> 100	> 100	> 100	–	–	–	–	–	–	–	–	–	–
CCN(CC)CCCC(Nc1c2ccc(Cl)cc2nc2ccc(OC)cc12)c1ccc(F)cc1 (stereo not drawn)	8.48	3.26	4.26	3.2	3.67	7.9	6.49	3.15	4.35	47.5	2.08	2.18	1.71	2	2.56	2.4	1.56	2.1	20.9	1.77
Cc1cccc2c(N)c3cccc(C(=O)NCCN(C)C)c3nc12	0.469	0.158	0.543	0.482	0.856	1.16	0.0324	0.81	0.463	1.48	–	–	–	–	–	–	–	–	–	–
Cc1ccc(/C(=C/C=C(C#N)C#N)Sc2cc(Cl)ccc2Cl)cc1	46.6	3.33	–	28.9	28	16.1	–	> 100	> 100	13.6	–	–	–	–	–	–	–	–	–	–
